In paper PMC6670186, “Novel prodrugs of decitabine with greater metabolic stability and less toxicity” (Clinical Epigenetics, 2019):
Marks after values point to notes of the source that are not given here.

Columns and labels:
[1] = tested on: Cytidine deaminase (CDA); set-up: method as in J. Clinical Investigation, 1974, 53(3), 922-931; settings: substrate of CDA; ref J. Clinical Investigation, 1974, 53(3), 922-931; cited from earlier work
[2] = Partition coefficient (log P), shake-flask method, n-octanol/PBS; format: physicochemical
Protocol: The method employed HPLC with the following conditions: ZORBAX Bonus C18 column (4.6 × 150 mm, 3 μm); eluent: A = 10 mM HCO2NH4, B = acetonitrile, A:B = 50:50 (an isocratic mode for 5 min), and A:B = 99:1–20:80 (a gradient mode for 15 min); flow rate = 1.0 mL/min; oven temperature = 40 °C; detection = 240 nm.

[3] = Stability in phosphate-buffered saline; format: physicochemical; settings: for t1/2 in PBS: PBS solution at 37°C; for Stability t1/2 in PBS: PBS 37 °C, 20** + x h, 20 h = t1/2 in PBS of DAC, x = OR compound
Protocol: Five microliters of DAC derivatives (1.0 mg/100 μL of DMSO) was added to 200 μL of a stirred PBS solution at 37 °C. The mixture was stirred continuously for 1 day. The remaining of the starting derivatives was assayed using the HPLC analytical conditions as described above.

[4] = molecular target: T1, human recombinant cytidine deaminase (Homo sapiens, UniProt P32320); test: Stability in the presence of cytidine deaminase; format: in vitro ADME; settings: for Enzymatic stability, retained: cytidine deaminase, after 2 h
T1 construct: His; purchased AT Gen Co. Ltd; Seoul, Korea
T1 sequence (P32320 whole entry): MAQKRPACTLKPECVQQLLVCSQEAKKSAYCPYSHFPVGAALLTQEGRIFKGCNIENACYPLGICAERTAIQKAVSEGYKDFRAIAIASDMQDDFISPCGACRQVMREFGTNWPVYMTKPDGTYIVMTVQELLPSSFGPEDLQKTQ
Excerpt: The remaining of the starting derivatives were continuously assayed using HPLC analytical conditions as described above.

[5] = Chemical stability in a protic solvent; format: physicochemical
[6] = Pharmacokinetics in mice, intraperitoneal; format: in vivo; settings: for AUC 0 → lim, DAC / AUC 0 → lim, Total / AUC 0 → lim, OR compound: plasma; for AUC 0 → lim, DAC: DAC (metabolite for OR compounds), equimolar dose; for AUC 0 → lim, Total: OR compound + metabolite DAC; for AUC 0 → lim, OR compound: dose equimolar to 0.20 mg/kg DAC
Protocol: Six-week-old female ICR mice were intraperitoneally injected with 0.20 mg/kg of DAC, 0.29 mg/kg of OR-2003, 0.32 mg/kg of OR-2009, 0.30 mg/kg of OR-2100, and 0.31 mg/kg of OR-2102. The doses were decided so that equivalent amounts of molar concentration would be administered. The blood plasma was collected before and at 5, 15, 30, 45, 60, 90, and 120 min after the treatment. All experimental procedures were approved by the Committee of National Cancer Center.

[7] = tested on: exogenous UCHL1 promoter and OSR2 promoter CpG island; test: Quantitative methylation-specific PCR of marker genes; format: cell-based, Human; settings: qMSP
Protocol: One microgram of EcoRV-digested genomic DNA was treated with sodium bisulfite as described previously. Bisulfite-treated DNA was resuspended in 40 μL of TE-buffer (10 mM Tris, pH 8.0; 1 mM EDTA, pH 8.0), and 1 μL was used for quantitative methylation-specific PCR (qMSP) using primers specific to methylated and unmethylated target loci, including MetLuc-UCHL1 promoter, OSR2 promoter, and UCHL1 promoter (Additional file 1: Table S1). As a fully unmethylated DNA control, genomic DNA from peripheral blood cells of a healthy person was amplified twice using a GenomiPhi DNA amplification kit (GE Healthcare Life Sciences; Little Chalfont, UK). As a fully methylated DNA control, the fully unmethylated DNA was methylated by SssI methylase (New England Biolabs; Beverly, MA).

SMILES | Log PO/PBS [2] | t1/2 in PBS [3] | also measured
Nc1ccn([C@H]2C[C@H](O)[C@@H](CO)O2)c(=O)n1 [2'-deoxycytidine] |  |  | Michaelis constant [1]: 26 µM
Nc1nc(=O)n([C@@H]2O[C@H](CO)[C@@H](O)[C@H]2O)cc1F [5-fluorocytidine] |  |  | Michaelis constant [1]: 30 µM
Nc1ncn([C@@H]2O[C@H](CO)[C@@H](O)[C@H]2O)c(=O)n1 [AZA, 5-azacytidine] |  |  | Michaelis constant [1]: 430 µM
Nc1ncn([C@H]2C[C@H](O)[C@@H](CO[Si](Cc3ccccc3)(Cc3ccccc3)Cc3ccccc3)O2)c(=O)n1 [Benzyl, Benzyl, Benzyl] | 4.69 | > 24 h | 
CC[Si](C)(CC)OC[C@H]1O[C@@H](n2cnc(N)nc2=O)C[C@@H]1O [Ethyl, Ethyl, Methyl] | 1.49 | 4 h | enzymatic stability in the presence of CDA [4]: stable in the presence of CDA
CC[Si](CC)(OCC1OC(n2cnc(N)nc2=O)CC1O)C1CCCC1 (stereo not drawn) [Ethyl, Ethyl, c-Pentyl] | 3.10 | > 24 h | 
CC[Si](CC)(OC[C@H]1O[C@@H](n2cnc(N)nc2=O)C[C@@H]1O)C(C)C [Ethyl, Ethyl, i-Propyl] | 2.56 | > 24 h | 
C[Si](C)(Cc1ccccc1)OC[C@H]1O[C@@H](n2cnc(N)nc2=O)C[C@@H]1O [Methyl, Methyl, Benzyl] | 1.73 | 2.5 h | enzymatic stability in the presence of CDA [4]: gradually degraded by CDA
CC[Si](C)(C)OC[C@H]1O[C@@H](n2cnc(N)nc2=O)C[C@@H]1O [Methyl, Methyl, Ethyl] |  | 0.9 h | 
C[Si](C)(C)OC[C@H]1O[C@@H](n2cnc(N)nc2=O)C[C@@H]1O [Methyl, Methyl, Methyl] |  | Unstable | stability in a protic solvent [5]: unstable
C[Si](C)(OCC1OC(n2cnc(N)nc2=O)CC1O)C1CCCC1 (stereo not drawn) [Methyl, Methyl, c-Pentyl] | 2.16 | 15 h | 
Nc1ncn([C@H]2C[C@H](OP(=O)(O)OC[C@H]3O[C@@H](n4cnc5c(=O)[nH]c(N)nc54)C[C@@H]3O)[C@@H](CO)O2)c(=O)n1 [guadecitabine, reference compound] |  |  | dose with strongest effect of DNA demethylation [7]: 1.0 µM; DNA demethylation of exogenous UCHL1 promoter and OSR2 promoter CpG island ([7]; 0.0 to 10.0 μM): weaker demethylation effect than OR-2003 and OR-2100

Further lines, with some results ahead:

Log PO/PBS [2] | t1/2 in PBS [3] | SMILES | also measured
1.48 | 12 h | CC(C)[Si](C)(C)OC[C@H]1O[C@@H](n2cnc(N)nc2=O)C[C@@H]1O [Methyl, Methyl, i-Propyl] | enzymatic stability in the presence of CDA [4]: stable in the presence of CDA
4.56 | 1.3 h | CCCC[Si](C)(C)OC[C@H]1O[C@@H](n2cnc(N)nc2=O)C[C@@H]1O [Methyl, Methyl, n-Butyl] | 
 | 1.5 h | CCCCCCCC[Si](C)(C)OCC1OC(n2cnc(N)nc2=O)CC1O (stereo not drawn) [Methyl, Methyl, n-Octyl] | 
1.91 | > 24 h | CC(C)(C)[Si](C)(C)OC[C@H]1O[C@@H](n2cnc(N)nc2=O)C[C@@H]1O [Methyl, Methyl, t-Butyl] | stability in a protic solvent [5]: stable
2.52 | 14 h | C[Si](C)(OC[C@H]1O[C@@H](n2cnc(N)nc2=O)C[C@@H]1O)C1CCCCC1 [OR-2009] | half-life (time to release DAC) [3]: ≥ 14 h; Stability t1/2 in PBS [3]: 20** + 14 h; Enzymatic stability, retained [4]: Retain 75% after 2 h; total AUC of OR compound and metabolite DAC compared with DAC [6]: larger AUCs than that of DAC; AUC 0 → lim, DAC [6]: 0.238 µM·h; AUC 0 → lim, Total [6]: 0.552 µM·h; AUC 0 → lim, OR compound [6]: 0.314 µM·h
2.54 | 19 h | CCC[Si](CC)(CC)OC[C@H]1O[C@@H](n2cnc(N)nc2=O)C[C@@H]1O [OR-2102] | half-life (time to release DAC) [3]: ≥ 14 h; Stability t1/2 in PBS [3]: 20** + 19 h; enzymatic stability in the presence of CDA [4]: gradually degraded by CDA; Enzymatic stability, retained [4]: Retain 46% after 2 h; AUC 0 → lim, DAC [6]: 0.285 µM·h; AUC 0 → lim, Total [6]: 0.366 µM·h; AUC 0 → lim, OR compound [6]: 0.081 µM·h
5.20 | 22 h | CCC[Si](CCC)(CCC)OC[C@H]1O[C@@H](n2cnc(N)nc2=O)C[C@@H]1O [n-Propyl, n-Propyl, n-Propyl] | 
